Literature values in US6756047B2, “Method and compositions for treating persistent pulmonary hypertension using aralkyl ester soft drugs” (The University of Toledo, priority 2000, dated 2004).

Experiments:
[1] = long duration of action; used clinically
[2] = eye examination use

| half-life (duration of action) [1] | SMILES | duration [2] |
| --- | --- | --- |
| several hour | CC(C)NCC(O)COc1cccc2ccccc12 (centres unmarked) [Structure 1, propranolol] | – |
| – | CN1[C@@H]2CC[C@H]1C[C@@H](OC(=O)C(CO)c1ccccc1)C2 (some centres unmarked) [Atropine, atropine] | several hour |
